In brackets after ≈: the same amount, converted by molar mass. Bridge positions count the residues as written; N and C are the ends. Square brackets hold non-standard residues; d marks the D form. Peptide text beside a SMILES is read from it. S5 = C=CCCC[C@](C)(N)C(=O)O
Key:
Assay type in all cases: functional
Staphylococcus aureus = test: Antibacterial activity against Staphylococcus aureus ATCC 25923 assessed as inhibition of bacterial growth measured after 24 hrs by broth microdilution method
Klebsiella pneumoniae = test: Antibacterial activity against Klebsiella pneumoniae ATCC 13883 assessed as inhibition of bacterial growth measured after 24 hrs by broth microdilution method
Pseudomonas aeruginosa = test: Antibacterial activity against Pseudomonas aeruginosa PAO1 assessed as inhibition of bacterial growth measured after 24 hrs by broth microdilution method

MIC (Staphylococcus aureus) [µM] | MIC (Klebsiella pneumoniae) [µM] | MIC (Pseudomonas aeruginosa) [µM] | Structure (SMILES)
> 100 | > 100 | > 100 | CC[C@H](C)[C@H](NC(=O)[C@H](CCC(N)=O)NC(=O)[C@@H](NC(=O)[C@H](C)NC(=O)[C@H](CCC(N)=O)NC(=O)CNC(=O)[C@@H](NC(=O)[C@@H](NC(=O)[C@H](C)NC(=O)[C@@H](NC(=O)[C@H](C)NC(=O)[C@@H]1CCCN1C(=O)CNC(=O)[C@H](C)NC(=O)[C@H](CCCCN)NC(=O)[C@@H](NC(=O)[C@@H](NC(=O)[C@]1(C)CCC/C=C\CCC[C@](C)(NC(=O)[C@H](CCC(N)=O)NC(=O)CNC(=O)[C@@H](NC(=O)[C@H](CCCCN)NC(=O)[C@H](CCC(=O)O)NC(=O)[C@@H](NC(=O)[C@H](CCCCN)NC(=O)[C@H](CCCCN)NC(=O)[C@H](Cc2ccccc2)NC(=O)[C@H](CC(C)C)NC(=O)[C@H](CCCCN)NC(=O)[C@H](Cc2c[nH]c3ccccc23)NC(=O)[C@H](CCCCN)NC(C)=O)[C@@H](C)CC)C(C)C)C(=O)N[C@@H]([C@@H](C)CC)C(=O)N[C@@H](CCCNC(=N)N)C(=O)N[C@@H](CC(=O)O)C(=O)N1)[C@@H](C)CC)[C@@H](C)CC)C(C)C)C(C)C)C(C)C)[C@@H](C)O)C(=O)N[C@@H](C)C(=O)N[C@@H](CCCCN)C(N)=O (Ac-KWKLFKKIEKVGQ[S5]IRD[S5]IIKAGPAVAVVGQATQIAK-NH2; staple (Z) 14-18)
> 100 | > 100 | > 100 | CC[C@H](C)[C@H](NC(=O)CNC(=O)[C@H](CC(=O)O)NC(=O)[C@H](CCCNC(=N)N)NC(=O)[C@@H](NC(=O)[C@H](CC(N)=O)NC(=O)[C@H](CCC(N)=O)NC(=O)CNC(=O)[C@@H](NC(=O)[C@]1(C)CCC/C=C\CCC[C@](C)(NC(=O)[C@H](Cc2ccccc2)NC(=O)[C@H](CC(C)C)NC(=O)[C@H](CCCCN)NC(=O)[C@H](Cc2c[nH]c3ccccc23)NC(=O)[C@H](CCCCN)NC(C)=O)C(=O)N[C@@H](CCCCN)C(=O)N[C@@H]([C@@H](C)CC)C(=O)N[C@@H](CCC(=O)O)C(=O)N1)C(C)C)[C@@H](C)CC)C(=O)N[C@H](C(=O)N[C@@H](CCCCN)C(=O)N[C@@H](C)C(=O)NCC(=O)N1CCC[C@H]1C(=O)N[C@@H](C)C(=O)N[C@H](C(=O)N[C@@H](C)C(=O)N[C@H](C(=O)N[C@H](C(=O)NCC(=O)N[C@@H](CCC(N)=O)C(=O)N[C@@H](C)C(=O)N[C@H](C(=O)N[C@@H](CCC(N)=O)C(=O)N[C@H](C(=O)N[C@@H](C)C(=O)N[C@@H](CCCCN)C(N)=O)[C@@H](C)CC)[C@@H](C)O)C(C)C)C(C)C)C(C)C)[C@@H](C)CC (Ac-KWKLF[S5]KIE[S5]VGQNIRDGIIKAGPAVAVVGQATQIAK-NH2; staple (Z) 6-10)
1.56 (≈ 6.3 µg/mL) | 6.25 (≈ 25.2 µg/mL) | > 100 | CC[C@H](C)[C@H](NC(=O)CNC(=O)[C@H](CC(=O)O)NC(=O)[C@H](CCCNC(=N)N)NC(=O)[C@@H](NC(=O)[C@H](CC(N)=O)NC(=O)[C@]1(C)CCC/C=C\CCC[C@](C)(NC(=O)[C@@H](NC(=O)[C@H](CCCCN)NC(=O)[C@H](CCCCN)NC(=O)[C@H](Cc2ccccc2)NC(=O)[C@H](CC(C)C)NC(=O)[C@H](CCCCN)NC(=O)[C@H](Cc2c[nH]c3ccccc23)NC(=O)[C@H](CCCCN)NC(C)=O)[C@@H](C)CC)C(=O)N[C@@H](CCCCN)C(=O)N[C@@H](C(C)C)C(=O)NCC(=O)N1)[C@@H](C)CC)C(=O)N[C@H](C(=O)N[C@@H](CCCCN)C(=O)N[C@@H](C)C(=O)NCC(=O)N1CCC[C@H]1C(=O)N[C@@H](C)C(=O)N[C@H](C(=O)N[C@@H](C)C(=O)N[C@H](C(=O)N[C@H](C(=O)NCC(=O)N[C@@H](CCC(N)=O)C(=O)N[C@@H](C)C(=O)N[C@H](C(=O)N[C@@H](CCC(N)=O)C(=O)N[C@H](C(=O)N[C@@H](C)C(=O)N[C@@H](CCCCN)C(N)=O)[C@@H](C)CC)[C@@H](C)O)C(C)C)C(C)C)C(C)C)[C@@H](C)CC (Ac-KWKLFKKI[S5]KVG[S5]NIRDGIIKAGPAVAVVGQATQIAK-NH2; staple (Z) 9-13)

From ChEMBL document CHEMBL6115030, “Systematic All-Hydrocarbon Stapling Analysis for Cecropin A Generates a Potent and Stable Antimicrobial Peptide” (J Med Chem, 2025)
